Measured values from patent publication US10434085B2, “Non-aromatic difluoro analogues of resorcylic acid lactones” (The University of North Carolina at Greensboro, priority 2015, dated 2019).

Molecular target: TaK1-TaB1 (TAK-1 enzyme) (Homo sapiens (Human), UniProt O43318)
Assay: TaK1-TaB1 inhibitor assay (IC50 of RAL analogues against TAK-1 enzyme)
Format: biochemical
Conditions: Table 1, TAK-1 enzyme
From the text: IV. TaK1-TaB1 (Transforming Growth Factor-β Activated Linase-1/TAK-1 Binding Protein 1) Inhibitor Assays

TaK1-TaB1 (TAK-1 enzyme), sequence (O43318 other isoform, or with tags, fused parts or gaps): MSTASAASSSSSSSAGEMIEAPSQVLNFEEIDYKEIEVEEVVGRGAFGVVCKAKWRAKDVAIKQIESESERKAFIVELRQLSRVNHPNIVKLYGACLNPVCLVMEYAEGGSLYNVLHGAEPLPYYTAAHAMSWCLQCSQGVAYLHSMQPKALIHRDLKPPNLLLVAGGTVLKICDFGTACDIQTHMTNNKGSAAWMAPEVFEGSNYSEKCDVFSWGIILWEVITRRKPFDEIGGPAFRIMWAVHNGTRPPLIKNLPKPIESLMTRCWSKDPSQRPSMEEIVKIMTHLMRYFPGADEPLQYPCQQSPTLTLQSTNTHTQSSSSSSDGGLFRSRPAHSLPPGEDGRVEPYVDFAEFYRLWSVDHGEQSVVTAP

| IC50 [µM] | SMILES |
| --- | --- |
| 0.36 | COc1cc(O)c2c(c1Br)/C=C/C[C@H](O)[C@H](O)C(=O)/C=C\C[C@H](C)OC2=O [Compound 7, (3S,5Z,8S,9S,11E)-13-Bromo-8,9,16-trihydroxy-14-methoxy-3-methyl-3,4,9,10-tetrahydro-1H-benzo[c][1]oxacyclotetradecine-1,7(8H)-dione] |
| > 30 | C/C=C\C=C/C(=O)[C@@H](O)[C@@H](O)C/C=C/c1cc(OC)cc(OC)c1C(=O)OC [Compound 4, Methyl 2-((1E,4S,5S,7Z,9Z)-4,5-dihydroxy-6-oxoundeca-1,7,9-trien-1-yl)-4,6-dimethoxybenzoate] |
| 2.6 | COc1cc2c(c(O)c1Br)C(=O)O[C@@H](C)C/C=C\C(=O)[C@@H](O)[C@@H](O)C/C=C/2 [Compound 6, (3S,5Z,8S,9S,11E)-15-Bromo-8,9,16-trihydroxy-14-methoxy-3-methyl-3,4,9,10-tetrahydro-1H-benzo[c][1]oxacyclotetradecine-1,7(8H)-dione] |
| > 30 | COc1cc(O)c2c(c1)/C=C/C[C@@H]1OC(CC(=O)[C@H]1O)C[C@H](C)OC2=O [Compound 9, (1^2S,1^3S,8S,E)-1^3,5^3-Dihydroxy-5^5-methoxy-8-methyl-1^3,1^4,1^5,1^6-tetrahydro-1^2H-7-oxa-1(2,6)-pyrana-5(1,2) benzenacyclononaphan-3-ene-1^4,6-dione] |

| SMILES | IC50 [µM] |
| --- | --- |
| COc1cc(O)c2c(c1)/C=C/C[C@H](O)[C@H](O)C(=O)CCC[C@H](C)OC2=O [LL-Z164-1, reference compound] | 2.6 |
| COc1cc(O)c2c(c1)[C@H]1O[C@@H]1C[C@H](O)[C@H](O)C(=O)CCC[C@H](C)OC2=O [dihydrohypothemycin, reference compound] | > 30 |
| COc1cc(O)c2c(c1)/C=C/C[C@H](O)[C@H](O)[C@@H](O)/C=C/C[C@H](C)OC2=O [zeaenol, reference compound] | 10 |

Same assay, conditions: among synthesized analogues

| activity in TAK-1 assay | SMILES |
| --- | --- |
| relatively active | COC1=CC(=O)C2=C(/C=C/C[C@H](O)[C@H](O)C(=O)/C=C\C[C@H](C)OC2=O)C1(F)F [Compound 5, (3S,5Z,8S,9S,11E)-13,13-Difluoro-8,9-dihydroxy-14-methoxy-3-methyl-3,4,9,10-tetrahydro-1H benzo[c][1]oxacyclotetradecine-1,7,16(8H,13H)-trione] |

Same assay, conditions: restated in Table 2 beside docking scores

| IC50 [µM] | SMILES |
| --- | --- |
| 0.38 | COc1cc(O)c2c(c1)/C=C/C[C@@H]1OC(C)(C)O[C@@H]1C(=O)/C=C\C[C@H](C)OC2=O [Compound 10, (3aS,5Z,8S,15E,17aS)-11-Hydroxy-13-methoxy-2,2,8-trimethyl-7,8,17,17a-tetrahydro-4H-benzo[c][1,3]dioxolo[4,5-h][1]oxacyclotetradecine-4,10(3aH)-dione] |
| > 30 | C/C=C\C=C/C(=O)[C@@H](O)[C@@H](O)C/C=C/c1cc(OC)cc(OC)c1C(=O)OC [Compound 4, Methyl 2-((1E,4S,5S,7Z,9Z)-4,5-dihydroxy-6-oxoundeca-1,7,9-trien-1-yl)-4,6-dimethoxybenzoate] |
| > 30 | COc1cc(O)cc2c1C(=O)O[C@@H](C)CCCCC/C=C/C(=O)C2 [Greensporone C, reference compound] |
| 8.9 | COc1c(Br)c(O)c2c(c1Br)/C=C/C[C@H](O)[C@H](O)C(=O)/C=C\C[C@H](C)OC2=O [Compound 8, (3S,5Z,8S,9S,11E)-13,15-Dibromo-8,9,16-trihydroxy-14methoxy-3-methyl-3,4,9,10-tetrahydro-1H-benzo[c][1]oxacyclotetradecine-1,7(8H)-dione] |

Test system: not given
Assay: not given
Conditions: cited from earlier work

| SMILES | stability in plasma |
| --- | --- |
| COc1cc(O)c2c(c1)/C=C/C[C@H](O)[C@H](O)C(=O)/C=C\C[C@H](C)OC2=O [(5Z)-7-oxozeaenol] | instability in plasma |
